From US8003785B2 (Takeda Pharmaceutical Company Limited, priority 2008, dated 2011)

Each compound was assayed against T1, PLK1 (Homo sapiens, UniProt P53350) (assay: Biochemical Characterization Assay: HTRF kinase assay, GST-PLK1 phosphorylation of GST-p53). Details: GST-PLK1, GST-p53 substrate.
T1 construct: Full-length, active GST-PLK1 is purified from Sf9 insect cells; made in house; host or cells: Sf9 insect cells
In short: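 Full-length active GST-PLK1 (Sf9, 3 ug/mL) phosphorylated full-length GST-p53 (E. coli) in Kinase Assay Buffer for 35 min at 37 °C. Stopped with EDTA; phospho-p53 detected by HTRF with anti-phospho-p53, Eu-anti-rabbit and APC-anti-GST antibodies.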

T1 sequence (P53350 whole entry): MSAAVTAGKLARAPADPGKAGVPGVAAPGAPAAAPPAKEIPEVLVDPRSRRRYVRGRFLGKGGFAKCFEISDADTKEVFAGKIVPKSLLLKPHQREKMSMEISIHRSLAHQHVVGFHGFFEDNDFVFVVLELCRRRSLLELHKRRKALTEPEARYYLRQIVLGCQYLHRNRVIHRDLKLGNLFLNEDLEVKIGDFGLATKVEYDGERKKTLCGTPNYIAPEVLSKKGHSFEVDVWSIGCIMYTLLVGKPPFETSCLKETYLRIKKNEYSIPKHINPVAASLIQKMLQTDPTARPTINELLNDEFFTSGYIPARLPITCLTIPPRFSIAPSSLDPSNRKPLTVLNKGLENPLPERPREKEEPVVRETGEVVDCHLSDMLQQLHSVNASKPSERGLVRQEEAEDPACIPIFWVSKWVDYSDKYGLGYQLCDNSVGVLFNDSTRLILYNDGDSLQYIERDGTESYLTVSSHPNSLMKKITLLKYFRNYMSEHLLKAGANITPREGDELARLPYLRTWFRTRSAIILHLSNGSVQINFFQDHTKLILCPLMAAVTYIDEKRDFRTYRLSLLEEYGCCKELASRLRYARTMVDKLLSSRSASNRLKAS

SMILES | IC50
CN1C(=O)C(F)(F)CN(C2CCCCC2)c2nc(Nc3ccc(C(=O)O)cc3)ncc21 [Example I-256, 4-(9-cyclohexyl-7,7-difluoro-5-methyl-6-oxo-6,7,8,9-tetrahydro-5H-pyrimido[4,5-b][1,4]diazepin-2-ylamin)-benzoic acid] | 1 to 50 nM
CN1C(=O)C(F)(F)CN(C2CCCCC2)c2nc(Nc3ccc(C(N)=O)cc3)ncc21 [Example I-257, 4-(9-cyclohexyl-7,7-difluoro-5-methyl-6-oxo-6,7,8,9-tetrahydro-5H-pyrimido[4,5-b][1,4]diazepin-2-ylamino)-benzamide] | 1 to 50 nM
CNC(=O)c1ccc(Nc2ncc3c(n2)N(C2CCCCC2)CC(F)(F)C(=O)N3C)cc1 [Example I-258, 4-(9-cyclohexyl-7,7-difluoro-5-methyl-6-oxo-6,7,8,9-tetrahydro-5H-pyrimido[4,5-b][1,4]diazepin-2-ylamino)-N-methyl-benzamide] | 1 to 50 nM
CN1C(=O)C(F)(F)CN(C2CCCCC2)c2nc(Nc3ccc(C(=O)NC4CCNCC4)cc3)ncc21 [Example I-260, 4-(9-cyclohexyl-7,7-difluoro-5-methyl-6-oxo-6,7,8,9-tetrahydro-5H-pyrimido[4,5-b][1,4]diazepin-2-ylamino)-N-piperidin-4-yl-benzamide] | 1 to 50 nM
CN1C(=O)C(F)(F)CN(C2CCCCC2)c2nc(Nc3ccc(C(=O)NC4CCOCC4)cc3)ncc21 [Example I-263, 4-(9-cyclohexyl-7,7-difluoro-5-methyl-6-oxo-6,7,8,9-tetrahydro-5H-pyrimido[4,5-b][1,4]diazepin-2-ylamino)-N-(tetrahydro-pyran-4-yl)-benzamide] | 1 to 50 nM
CN(C)CCNC(=O)c1ccc(Nc2ncc3c(n2)N(C2CCCCC2)CC(F)(F)C(=O)N3C)cc1 [Example I-264, 4-(9-cyclohexyl-7,7-difluoro-5-methyl-6-oxo-6,7,8,9-tetrahydro-5H-pyrimido[4,5-b][1,4]diazepin-2-ylamino)-N-(2-dimethylamino-ethyl)-benzamide] | 1 to 50 nM
CN(C)CCCNC(=O)c1ccc(Nc2ncc3c(n2)N(C2CCCCC2)CC(F)(F)C(=O)N3C)cc1 [Example I-265, 4-(9-cyclohexyl-7,7-difluoro-5-methyl-6-oxo-6,7,8,9-tetrahydro-5H-pyrimido[4,5-b][1,4]diazepin-2-ylamino)-N-(3-dimethylamino-propyl)-benzamide] | 1 to 50 nM
COc1cc(C(=O)O)ccc1Nc1ncc2c(n1)N(CCc1cccs1)CC(F)(F)C(=O)N2C [Example I-269, 4-[7,7-difluoro-5-methyl-6-oxo-9-(2-thiophen-2-yl-ethyl)-6,7,8,9-tetrahydro-5-pyrimido[4,5-b]diazepin-2-ylamino]-3-methoxy-benzoic acid] | 51 to 500 nM
COc1cc(C(=O)NC2CCN(C)CC2)ccc1Nc1ncc2c(n1)N(CCc1cccs1)CC(F)(F)C(=O)N2C [Example I-270, 4-[7,7-difluoro-5-methyl-6-oxo-9-(2-thiophen-2-yl-ethyl)-6,7,8,9-tetrahydro-5H-pyrimido[4,5-b][1,4]diazepin-2-ylamino]-3-methoxy-N-(1-methyl-piperidin-4-yl)-benzamide] | 1 to 50 nM
COc1cc(C(N)=O)ccc1Nc1ncc2c(n1)N(CCc1cccs1)CC(F)(F)C(=O)N2C [Example I-271, 4-[7,7-difluoro-5-methyl-6-oxo-9-(2-thiophen-2-yl-ethyl)-6,7,8,9-tetrahydro-5H-pyrimido[4,5-b][1,4]diazepin-2-ylamino]-3-methoxy-benzamide] | 51 to 500 nM
CNC(=O)c1ccc(Nc2ncc3c(n2)N(CCc2cccs2)CC(F)(F)C(=O)N3C)c(OC)c1 [Example I-272, 4-[7,7-difluoro-5-methyl-6-oxo-9-(2-thiophen-2-yl-ethyl)-6,7,8,9-tetrahydro-5H-pyrimido[4,5-b][1,4]diazepin-2-ylamino]-3-methoxy-N-methyl-benzamide] | 1 to 50 nM
COc1cc(C(=O)NCCCN(C)C)ccc1Nc1ncc2c(n1)N(CCc1cccs1)CC(F)(F)C(=O)N2C [Example I-273, 4-[7,7-difluoro-5-methyl-6-oxo-9-(2-thiophen-2-yl-ethyl)-6,7,8,9-tetrahydro-5H-pyrimido[4,5-b][1,4]diazepin-2-ylamino]-N-(3-dimethylamino-propyl)-3-methoxy-benzamide] | 1 to 50 nM
COc1cc(C(=O)NC2CCOCC2)ccc1Nc1ncc2c(n1)N(CCc1cccs1)CC(F)(F)C(=O)N2C [Example I-274, 4-[7,7-difluoro-5-methyl-6-oxo-9-(2-thiophen-2-yl-ethyl)-6,7,8,9-tetrahydro-5H-pyrimido[4,5-b][1,4]diazepin-2-ylamino]-3-methoxy-N-(tetrahydro-pyran-4-yl)-benzamide] | 51 to 500 nM
COc1cc(C(=O)O)ccc1Nc1ncc2c(n1)N(CCc1ccccc1)CC(F)(F)C(=O)N2C [Example I-275, 4-(7,7-difluoro-5-methyl-6-oxo-9-phenethyl-6,7,8,9-tetrahydro-5H-pyrimido[4,5-b][1,4]diazepin-2-ylamino)-3-methoxy-benzoic acid] | 51 to 500 nM
COc1cc(C(=O)NC2CCN(C)CC2)ccc1Nc1ncc2c(n1)N(CCc1ccccc1)CC(F)(F)C(=O)N2C [Example I-276, 4-(7,7-difluoro-5-methyl-6-oxo-9-phenethyl-6,7,8,9-tetrahydro-5!-pyrimido[4,5-b][1,4]diazepin-2-ylamino)-3-methoxy-N-(1-methyl-piperidin-4-yl)-benzamide] | 1 to 50 nM

Second part, the compound after the results:

IC50 | SMILES
1 to 50 nM | COc1cc(C(N)=O)ccc1Nc1ncc2c(n1)N(C1CCCCC1)CC(F)(F)C(=O)N2C [Example I-248, 4-(9-cyclohexyl-7,7-difluoro-5-methyl-6-oxo-6,7,8,9-tetrahydro-5H-pyrimido[4,5-b][1,4]diazepin-2-ylamino)-3-methoxy-benzamide]
1 to 50 nM | CNC(=O)c1ccc(Nc2ncc3c(n2)N(C2CCCCC2)CC(F)(F)C(=O)N3C)c(OC)c1 [Example I-249, 4-(9-cyclohexyl-7,7-difluoro-5-methyl-6-oxo-6,7,8,9-tetrahydro-5H-pyrimido[4,5-b][1,4]diazepin-2-ylamino)-3-methoxy-N-methyl-benzamide]
1 to 50 nM | COc1cc(C(=O)NC2CCNCC2)ccc1Nc1ncc2c(n1)N(C1CCCCC1)CC(F)(F)C(=O)N2C [Example I-251, 4-(9-cyclohexyl-7,7-difluoro-5-methyl-6-oxo-6,7,8,9-tetrahydro-5H-pyrimido[4,5-b][1,4]diazepin-2-ylamino)-3-methoxy-N-piperidin-4-yl-benzamide]
1 to 50 nM | COc1cc(C(=O)NC2CCOCC2)ccc1Nc1ncc2c(n1)N(C1CCCCC1)CC(F)(F)C(=O)N2C [Example I-252, 4-(9-cyclohexyl-7,7-difluoro-5-methyl-6-oxo-6,7,8,9-tetrahydro-5H-pyrimido[4,5-b][1,4]diazepin-2-ylamino)-3-methoxy-N-(tetrahydro-pyran-4-yl)-benzamide]
1 to 50 nM | COc1cc(C(=O)NCCN(C)C)ccc1Nc1ncc2c(n1)N(C1CCCCC1)CC(F)(F)C(=O)N2C [Example I-253, 4-(9-cyclohexyl-7,7-difluoro-5-methyl-6-oxo-6,7,8,9-tetrahydro-5H-pyrimido[4,5-b][1,4]diazepin-2-ylamino)-N-(2-dimethylamino-ethyl)-3-methoxy-benzamide]
1 to 50 nM | COc1cc(C(=O)NCCCN(C)C)ccc1Nc1ncc2c(n1)N(C1CCCCC1)CC(F)(F)C(=O)N2C [Example I-254, 4-(9-cyclohexyl-7,7-difluoro-5-methyl-6-oxo-6,7,8,9-tetrahydro-5H-pyrimido[4,5-b][1,4]diazepin-2-ylamino)-N-(3-dimethylamino-propyl)-3-methoxy-benzamide]
1 to 50 nM | CCN1CCC(NC(=O)c2ccc(Nc3ncc4c(n3)N(C3CCCCC3)CC(F)(F)C(=O)N4C)c(OC)c2)CC1 [Example I-255, 4-(9-cyclohexyl-7,7-difluoro-5-methyl-6-oxo-6,7,8,9-tetrahydro-5H-pyrimido[4,5-b][1,4]diazepin-2-ylamino)-N-(1-ethyl-piperidin-4-yl)-3-methoxy-benzamide]
1 to 50 nM | CCN1CCC(NC(=O)c2ccc(Nc3ncc4c(n3)N(C3CCCCC3)CC(F)(F)C(=O)N4C)cc2)CC1 [Example I-261, 4-(9-cyclohexyl-7,7-difluoro-5-methyl-6-oxo-6,7,8,9-tetrahydro-5H-pyrimido[4,5-b][1,4]diazepin-2-ylamino)-N-(1-ethyl-piperidin-4-yl)-benzamide]
1 to 50 nM | CN1CCC(NC(=O)c2ccc(Nc3ncc4c(n3)N(C3CCCCC3)CC(F)(F)C(=O)N4C)cc2)CC1 [Example I-262, 4-(9-cyclohexyl-7,7-difluoro-5-methyl-6-oxo-6,7,8,9-tetrahydro-5H-pyrimido[4,5-b][1,4]diazepin-2-ylamino)-N-(1-methyl-piperidin-4-yl)-benzamide]
1 to 50 nM | COc1cc(C(=O)NC2CCN(CC(F)F)CC2)ccc1Nc1ncc2c(n1)N(C1CCCCC1)CC(F)(F)C(=O)N2C [Example I-266, 4-(9-cyclohexyl-7,7-difluoro-5-methyl-6-oxo-6,7,8,9-tetrahydro-5H-pyrimido[4,5-b][1,4]diazepin-2-ylamino)-N-[1-(2,2-difluoro-ethyl)-piperidin-4-yl]-3-methoxy-benzamide]
1 to 50 nM | COc1cc(C(=O)NC2CCN(CCO)CC2)ccc1Nc1ncc2c(n1)N(C1CCCCC1)CC(F)(F)C(=O)N2C [Example I-267, 4-(9-cyclohexyl-7,7-difluoro-5-methyl-6-oxo-6,7,8,9-tetrahydro-5H-pyrimido[4,5-b][1,4]diazepin-2-ylamino)-N-[1-(2-hydroxy-ethyl)-piperidin-4-yl]-3-methoxy-benzamide]
51 to 500 nM | COc1cc(C(=O)NC2CCN(S(C)(=O)=O)CC2)ccc1Nc1ncc2c(n1)N(C1CCCCC1)CC(F)(F)C(=O)N2C [Example I-268, 4-(9-cyclohexyl-7,7-difluoro-5-methyl-6-oxo-6,7,8,9-tetrahydro-5H-pyrimido[4,5-b][1,4]diazepin-2-ylamino)-N-(1-methanesulfonyl-piperidin-4-yl)-3-methoxy-benzamide]
